Values of other authors as cited in patent US20190209686A1, “PULSE PHOTODYNAMIC TREATMENT OF ACNE” (GALDERMA RESEARCH & DEVELOPMENT, priority 2013, published 2019).
Read-outs that look alike come from different tables or passages of the source.

Assays:
acne [1] = conditions: cream 16% wt., 3 hours, non-coherent red light
acne [2] = conditions: 20%, 3 hours, 150 J/cm2 broad band light

## COC(=O)CCC(=O)CN [methyl ALA ester, 5-ALA methyl ester]
Acne [1]
  side effects of PDT reported by subjects: caused pain and induced severe inflammation
Acne [1]; repeated 2 weeks later
  efficacy of PDT in acne: effective in the treatment of acne

## NCC(=O)CCC(=O)O [ALA acid, 5-amino-4-oxo-pentanoic acid]
Acne [2]
  efficacy of PDT in acne: effective for the treatment of acne
  side effects after PDT: erythema, hyperpigmentation and exfoliation were often seen after PDT treatment
